# Laboratory results: PubChem BioAssay (NCI)
#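 Test compounds were applied to cells in 96-well plates for 48 hours at 5 doses. The concentration for 50% growth inhibition is given as GI50. TGI: concentration producing complete growth inhibition.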
# Tests used:
# Experiment in all cases: NCI-60 cell line screen, 48 h
# MDA-MB-231 breast = tested on: MDA-MB-231 breast
# SK-MEL-5 melanoma = tested on: SK-MEL-5 melanoma
# HS 578T breast = tested on: HS 578T breast
# DU-145 prostate = tested on: DU-145 prostate
# HCT-15 colon = tested on: HCT-15 colon
# SNB-19 CNS = tested on: SNB-19 CNS
# HOP-62 NSCLC = tested on: HOP-62 NSCLC
# NCI/ADR-RES ovarian = tested on: NCI/ADR-RES ovarian
# HT29 colon = tested on: HT29 colon
# HCT-116 colon = tested on: HCT-116 colon
# MOLT-4 leukemia = tested on: MOLT-4 leukemia
# OVCAR-5 ovarian = tested on: OVCAR-5 ovarian
# SF-539 CNS = tested on: SF-539 CNS
# RPMI-8226 leukemia = tested on: RPMI-8226 leukemia
# MDA-MB-435 = tested on: MDA-MB-435
# SF-268 CNS = tested on: SF-268 CNS
# UACC-62 melanoma = tested on: UACC-62 melanoma
# SF-295 CNS = tested on: SF-295 CNS
# OVCAR-3 ovarian = tested on: OVCAR-3 ovarian
# HL-60(TB) leukemia = tested on: HL-60(TB) leukemia
# HCC-2998 colon = tested on: HCC-2998 colon
# MALME-3M melanoma = tested on: MALME-3M melanoma
# LOX IMVI melanoma = tested on: LOX IMVI melanoma
# M14 melanoma = tested on: M14 melanoma
# K-562 leukemia = tested on: K-562 leukemia
# SK-MEL-28 melanoma = tested on: SK-MEL-28 melanoma
# NCI-H226 lung = tested on: NCI-H226 lung
# UO-31 renal = tested on: UO-31 renal
# EKVX NSCLC = tested on: EKVX NSCLC
# TK-10 renal = tested on: TK-10 renal
# NCI-H23 lung = tested on: NCI-H23 lung
# NCI-H522 lung = tested on: NCI-H522 lung
# IGROV1 ovarian = tested on: IGROV1 ovarian
# BT-549 breast = tested on: BT-549 breast
# HOP-92 NSCLC = tested on: HOP-92 NSCLC
# UACC-257 melanoma = tested on: UACC-257 melanoma
# SR leukemia = tested on: SR leukemia
# SK-OV-3 ovarian = tested on: SK-OV-3 ovarian
# CAKI-1 renal = tested on: CAKI-1 renal
# PC-3 prostate = tested on: PC-3 prostate
# T-47D breast = tested on: T-47D breast
# SK-MEL-2 melanoma = tested on: SK-MEL-2 melanoma
# MCF7 breast = tested on: MCF7 breast
# OVCAR-8 ovarian = tested on: OVCAR-8 ovarian
# SNB-75 CNS = tested on: SNB-75 CNS
# CCRF-CEM leukemia = tested on: CCRF-CEM leukemia
# NCI-H460 lung = tested on: NCI-H460 lung
# A498 renal = tested on: A498 renal
# SN12C renal = tested on: SN12C renal
# 786-0 renal = tested on: 786-0 renal
# ACHN renal = tested on: ACHN renal
# U251 CNS = tested on: U251 CNS
# KM12 colon = tested on: KM12 colon
# A549 NSCLC = tested on: A549 NSCLC
# OVCAR-4 ovarian = tested on: OVCAR-4 ovarian
# SW-620 colon = tested on: SW-620 colon
# COLO 205 colon = tested on: COLO 205 colon
smiles,measurement,setting,value
COc1ccc(C(=O)C2C(C#N)C(C#N)C3C=Cc4ccccc4N32)cc1 (configuration not stated),GI50,MDA-MB-231 breast,1.46 µM
same,TGI,MDA-MB-231 breast,44.1 µM
same,GI50,SK-MEL-5 melanoma,3.49 µM
same,TGI,SK-MEL-5 melanoma,19.8 µM
same,GI50,HS 578T breast,2.1 µM
same,TGI,HS 578T breast,> 100 µM
same,GI50,DU-145 prostate,2.93 µM
same,TGI,DU-145 prostate,> 100 µM
same,GI50,HCT-15 colon,0.844 µM
same,TGI,HCT-15 colon,> 100 µM
same,GI50,SNB-19 CNS,3.71 µM
same,TGI,SNB-19 CNS,> 100 µM
same,GI50,HOP-62 NSCLC,3.76 µM
same,TGI,HOP-62 NSCLC,> 100 µM
same,GI50,NCI/ADR-RES ovarian,0.571 µM
same,TGI,NCI/ADR-RES ovarian,> 100 µM
same,GI50,HT29 colon,0.742 µM
same,TGI,HT29 colon,> 100 µM
same,GI50,HCT-116 colon,0.653 µM
same,TGI,HCT-116 colon,14.9 µM
same,GI50,MOLT-4 leukemia,2.6 µM
same,TGI,MOLT-4 leukemia,> 100 µM
same,GI50,OVCAR-5 ovarian,3.43 µM
same,TGI,OVCAR-5 ovarian,> 100 µM
same,GI50,SF-539 CNS,1.32 µM
same,TGI,SF-539 CNS,4.08 µM
same,GI50,RPMI-8226 leukemia,3.48 µM
same,TGI,RPMI-8226 leukemia,> 100 µM
same,GI50,MDA-MB-435,0.335 µM
same,TGI,MDA-MB-435,1.24 µM
same,GI50,SF-268 CNS,3.92 µM
same,TGI,SF-268 CNS,> 100 µM
same,GI50,UACC-62 melanoma,0.781 µM
same,TGI,UACC-62 melanoma,> 100 µM
same,GI50,SF-295 CNS,2.82 µM
same,TGI,SF-295 CNS,> 100 µM
same,GI50,OVCAR-3 ovarian,0.642 µM
same,TGI,OVCAR-3 ovarian,4.22 µM
same,GI50,HL-60(TB) leukemia,1.23 µM
same,TGI,HL-60(TB) leukemia,19.5 µM
same,GI50,HCC-2998 colon,2.99 µM
same,TGI,HCC-2998 colon,> 100 µM
same,GI50,MALME-3M melanoma,2.67 µM
same,TGI,MALME-3M melanoma,> 100 µM
same,GI50,LOX IMVI melanoma,2.1 µM
same,TGI,LOX IMVI melanoma,> 100 µM
same,GI50,M14 melanoma,0.5 µM
same,TGI,M14 melanoma,> 100 µM
same,GI50,K-562 leukemia,0.405 µM
same,TGI,K-562 leukemia,> 100 µM
same,GI50,SK-MEL-28 melanoma,3.77 µM
same,TGI,SK-MEL-28 melanoma,> 100 µM
same,GI50,NCI-H226 lung,2.29 µM
same,TGI,NCI-H226 lung,30.2 µM
same,GI50,UO-31 renal,1.95 µM
same,TGI,UO-31 renal,> 100 µM
same,GI50,EKVX NSCLC,6.29 µM
same,TGI,EKVX NSCLC,> 100 µM
same,GI50,TK-10 renal,> 100 µM
same,TGI,TK-10 renal,> 100 µM
same,GI50,NCI-H23 lung,3.62 µM
same,TGI,NCI-H23 lung,> 100 µM
same,GI50,NCI-H522 lung,2.45 µM
same,TGI,NCI-H522 lung,> 100 µM
same,GI50,IGROV1 ovarian,2.74 µM
same,TGI,IGROV1 ovarian,> 100 µM
same,GI50,BT-549 breast,1.98 µM
same,TGI,BT-549 breast,> 100 µM
same,GI50,HOP-92 NSCLC,2.77 µM
same,TGI,HOP-92 NSCLC,> 100 µM
same,GI50,UACC-257 melanoma,> 100 µM
same,TGI,UACC-257 melanoma,> 100 µM
same,GI50,SR leukemia,0.544 µM
same,TGI,SR leukemia,> 100 µM
same,GI50,SK-OV-3 ovarian,7.3 µM
same,TGI,SK-OV-3 ovarian,> 100 µM
same,GI50,CAKI-1 renal,0.46 µM
same,TGI,CAKI-1 renal,> 100 µM
same,GI50,PC-3 prostate,1.45 µM
same,TGI,PC-3 prostate,> 100 µM
same,GI50,T-47D breast,23.9 µM
same,TGI,T-47D breast,> 100 µM
same,GI50,SK-MEL-2 melanoma,7.44 µM
same,TGI,SK-MEL-2 melanoma,> 100 µM
same,GI50,MCF7 breast,1.09 µM
same,TGI,MCF7 breast,> 100 µM
same,GI50,OVCAR-8 ovarian,3.29 µM
same,TGI,OVCAR-8 ovarian,> 100 µM
same,GI50,SNB-75 CNS,0.278 µM
same,TGI,SNB-75 CNS,5.57 µM
same,GI50,CCRF-CEM leukemia,1.94 µM
same,TGI,CCRF-CEM leukemia,> 100 µM
same,GI50,NCI-H460 lung,0.749 µM
same,TGI,NCI-H460 lung,> 100 µM
same,GI50,A498 renal,0.244 µM
same,TGI,A498 renal,3.13 µM
same,GI50,SN12C renal,2.5 µM
same,TGI,SN12C renal,> 100 µM
same,GI50,786-0 renal,4.43 µM
same,TGI,786-0 renal,> 100 µM
same,GI50,ACHN renal,1.43 µM
same,TGI,ACHN renal,> 100 µM
same,GI50,U251 CNS,2.82 µM
same,TGI,U251 CNS,> 100 µM
same,GI50,KM12 colon,1.25 µM
same,TGI,KM12 colon,> 100 µM
same,GI50,A549 NSCLC,2.4 µM
same,TGI,A549 NSCLC,> 100 µM
same,GI50,OVCAR-4 ovarian,6 µM
same,TGI,OVCAR-4 ovarian,> 100 µM
same,GI50,SW-620 colon,0.714 µM
same,TGI,SW-620 colon,> 100 µM
COc1cccc(C2SCC(=O)N2c2ccc(-c3ccc(-n4c(-c5ccccc5)nc5ccccc5c4=O)cc3)cc2)c1OC (configuration not stated),TGI,MDA-MB-231 breast,> 100 µM
same,TGI,SK-MEL-5 melanoma,> 100 µM
same,TGI,HS 578T breast,> 100 µM
same,TGI,DU-145 prostate,> 100 µM
same,TGI,HCT-15 colon,> 100 µM
same,TGI,SNB-19 CNS,> 100 µM
same,TGI,HOP-62 NSCLC,> 100 µM
same,TGI,NCI/ADR-RES ovarian,> 100 µM
same,TGI,HT29 colon,> 100 µM
same,TGI,HCT-116 colon,> 100 µM
same,TGI,MOLT-4 leukemia,> 100 µM
same,TGI,OVCAR-5 ovarian,> 100 µM
same,TGI,SF-539 CNS,> 100 µM
same,TGI,RPMI-8226 leukemia,> 100 µM
same,TGI,MDA-MB-435,> 100 µM
same,TGI,SF-268 CNS,> 100 µM
same,TGI,COLO 205 colon,> 100 µM
same,TGI,UACC-62 melanoma,> 100 µM
same,TGI,SF-295 CNS,> 100 µM
same,TGI,OVCAR-3 ovarian,> 100 µM
same,TGI,HL-60(TB) leukemia,> 100 µM
same,TGI,HCC-2998 colon,> 100 µM
same,TGI,MALME-3M melanoma,> 100 µM
same,TGI,LOX IMVI melanoma,> 100 µM
same,TGI,M14 melanoma,> 100 µM
same,TGI,K-562 leukemia,> 100 µM
same,TGI,SK-MEL-28 melanoma,> 100 µM
same,TGI,NCI-H226 lung,> 100 µM
same,TGI,UO-31 renal,> 100 µM
same,TGI,EKVX NSCLC,> 100 µM
same,TGI,TK-10 renal,> 100 µM
same,TGI,NCI-H23 lung,> 100 µM
same,TGI,NCI-H522 lung,> 100 µM
same,TGI,IGROV1 ovarian,> 100 µM
same,TGI,BT-549 breast,> 100 µM
same,TGI,HOP-92 NSCLC,> 100 µM
same,TGI,UACC-257 melanoma,> 100 µM
same,TGI,SR leukemia,> 100 µM
same,TGI,CAKI-1 renal,> 100 µM
same,TGI,PC-3 prostate,> 100 µM
same,TGI,T-47D breast,> 100 µM
same,TGI,SK-MEL-2 melanoma,> 100 µM
same,TGI,MCF7 breast,> 100 µM
same,TGI,OVCAR-8 ovarian,> 100 µM
same,TGI,SNB-75 CNS,89.1 µM
same,TGI,CCRF-CEM leukemia,> 100 µM
same,TGI,NCI-H460 lung,> 100 µM
same,TGI,A498 renal,> 100 µM
same,TGI,SN12C renal,> 100 µM
same,TGI,786-0 renal,> 100 µM
same,TGI,ACHN renal,> 100 µM
same,TGI,U251 CNS,> 100 µM
same,TGI,KM12 colon,> 100 µM
same,TGI,A549 NSCLC,> 100 µM
same,TGI,OVCAR-4 ovarian,> 100 µM
